This note sets out measurements from patent publication US8501755B2, “Tetrahydropyridothienopyrimidine compounds and methods of use thereof” (Bayer Intellectual Property GmbH, priority 2006, dated 2013).

As usually defined, the IC50 is the midpoint of a concentration-inhibition curve.

Format in all cases: cell-based
One test concerns A431 cells. The test is described as follows: In vitro tumor cell proliferation assay (Cell Titer-Glo) in A431 cells. The conditions noted are these: Homo sapiens, A-431, 72 h, A431 human epidermoid carcinoma overexpressing HER1; 72 hours exposure; read-out: IC50, activities in A431 cell lines. The essentials:
(§1)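 Viability after 72 h drug exposure at 37 °C was read as CellTiter-Glo ATP luminescence, giving IC50. Cells (2.5×10^3/well, RPMI + 10% FBS) were compound-treated one day post-seeding, 0.1% DMSO final: A431 overexpresses HER1, N87 overexpresses HER2 and HER1.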

The subject of the next test is N87. The test is described as follows: In vitro tumor cell proliferation assay (Cell Titer-Glo) in N87 cells. The conditions noted are these: N87 human gastric carcinoma overexpressing HER2 and HER1; 72 hours exposure; read-out: IC50, activities in N87 cell lines. The gist of the method: as §1
In general terms: Cellular ATP, detected with luciferase, serves as a proxy for viable cell number.

The subject of another test is H1975 cells. The test is described as follows: In vitro tumor cell proliferation assay (Cell Titer-Glo) in H1975 cells. The conditions noted are these: NCI-H1975; H1975 human NSCLC expressing mutant HER1 (L858R,T790M); 72 hours exposure; read-out: IC50, activities in H 1975 cell lines. The gist of the method:
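After 72 h compound exposure at 37° C (top 10 uM down to 64 pM, 0.1% DMSO), viability of EGFR L858R/T790M-mutant H1975 cells was read as ATP luminescence.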

As to `CN(C)C/C=C/C(=O)N1CCc2c(sc3ncnc(Nc4cccc(Br)c4)c23)C1` [Example 160, N-(3-bromophenyl)-7-[(2E)-4-(dimethylamino)but-2-enoyl]-5,6,7,8-tetrahydropyrido [4′,3′:4,5]thieno[2,3-d]pyrimidin-4-amine], the IC50 in the test on A431 cells, with N87 and in the test with H1975 cells was below 200 nM throughout.
Turning to `CN(C)C/C=C/C(=O)N1CCc2c(sc3ncnc(Nc4ccccc4)c23)C1` [Example 161, 7-[(2E)-4-(dimethylamino)but-2-enoyl]-N-phenyl-5,6,7,8-tetrahydropyrido [4′,3′:4,5]thieno[2,3-d]pyrimidin-4-amine], the 50% inhibitory concentration (IC50) in the test with A431 cells was 200 to 1000 nM; with N87, below 200 nM; in the test with H1975 cells, 200 to 1000 nM.
Take `CN(C)C/C=C/C(=O)N1CCc2c(sc3ncnc(Nc4ccc(F)cc4F)c23)C1` [Example 162, N-(2,4-difluorophenyl)-7-[(2E)-4-(dimethylamino)but-enoyl]-5,6,7,8-tetrahydropyrido [4′,3′:4,5]thieno[2,3-d]pyrimidin-4-amine]: the IC50 in the test on A431 cells is 200 to 1000 nM; in the test on N87 it was below 200 nM; with H1975 cells, 1000 to 10000 nM.
Taken in the same sequence, the figures for `CN(C)C/C=C/C(=O)N1CCc2c(sc3ncnc(Nc4ccc(Cl)cc4)c23)C1` [Example 163, N-(4-chlorophenyl)-7-[(2E)-4-(dimethylamino)but-2-enoyl]-5,6,7,8-tetrahydropyrido [4′,3′:4,5]thieno[2,3-d]pyrimidin-4-amine] were 200 to 1000 nM, below 200 nM and 200 to 1000 nM.
In the case of `CN(C)C/C=C/C(=O)N1CCc2c(sc3ncnc(Nc4cccc(Cl)c4)c23)C1` [Example 164, N-(3-chlorophenyl)-7-[(2E)-4-(dimethylamino)but-2-enoyl]-5,6,7,8-tetrahydropyrido [4′,3′:4,5]thieno[2,3-d]pyrimidin-4-amine], the concentration for half-maximal inhibition (IC50) is 200 to 1000 nM in the test on A431 cells, below 200 nM with N87 and 200 to 1000 nM with H1975 cells.
Take `CN(C)C/C=C/C(=O)N1CCc2c(sc3ncnc(Nc4ccc(Cl)c(Cl)c4)c23)C1` [Example 165, N-(3,4-dichlorophenyl)-7-{(2E)-4-[dimethylamino]but-2-enoyl}-5,6,7,8-tetrahydropyrido[4′,3′:4,5]thieno[2,3-d]pyrimidin-4-amine]: the IC50 is 200 to 1000 nM in the test on A431 cells, below 200 nM in the test on N87 and below 200 nM in the test on H1975 cells.
Consider `Cc1ccc(F)cc1Nc1ncnc2sc3c(c12)CCN(C(=O)/C=C/CN(C)C)C3` [Example 166, 7-[(2E)-4-(dimethylamino)but-2-enoyl]-N-(5-fluoro-2-methylphenyl)-5,6,7,8-tetrahydropyrido [4′,3′:4,5]thieno[2,3-d]pyrimidin-4-amine], for which the results for the IC50 with A431 cells, in the test with N87 and in the test on H1975 cells were 1000 to 10000 nM, 200 to 5000 nM and 1000 to 10000 nM, respectively.
Turning to `Cc1cc(C)cc(Nc2ncnc3sc4c(c23)CCN(C(=O)/C=C/CN(C)C)C4)c1` [Example 167, 7-[(2E)-4-(dimethylamino)but-2-enoyl]-N-(3,5-dimethylphenyl)-5,6,7,8-tetrahydropyrido [4′,3′:4,5]thieno[2,3-d]pyrimidin-4-amine], the results for the IC50 in the test with A431 cells, in the test on N87 and with H1975 cells were 1000 to 10000 nM, below 200 nM and 1000 to 10000 nM, respectively.
On to `CCOc1cccc(Nc2ncnc3sc4c(c23)CCN(C(=O)/C=C/CN(C)C)C4)c1` [Example 168, 7-[(2E)-4-(dimethylamino)but-2-enoyl]-N-(3-ethoxyphenyl)-5,6,7,8-tetrahydropyrido [4′,3′:4,5]thieno[2,3-d]pyrimidin-4-amine], for which the half-maximal inhibitory concentration (IC50) in the test on A431 cells was 1000 to 10000 nM; with N87, below 200 nM; in the test with H1975 cells, 1000 to 10000 nM.
In the case of `CN(C)C/C=C/C(=O)N1CCc2c(sc3ncnc(NCc4ccccc4)c23)C1` [Example 169, N-benzyl-7-[(2E)-4-(dimethylamino)but-2-enoyl]-5,6,7,8-tetrahydropyrido [4′,3′:4,5]thieno[2,3-d]pyrimidin-4-amine], the 50% inhibitory concentration (IC50) is 1000 to 10000 nM with A431 cells, below 200 nM in the test on N87 and 1000 to 10000 nM in the test with H1975 cells.
For the molecule `CN(C)C/C=C/C(=O)N1CCc2c(sc3ncnc(Nc4ccc(Br)c(Cl)c4)c23)C1` [Example 172, N-(4-bromo-3-chlorophenyl)-7-[(2E)-4-(dimethylamino)but-2-enoyl]-5,6,7,8-tetrahydropyrido [4′,3′:4,5]thieno[2,3-d]pyrimidin-4-amine], the IC50 with A431 cells is 200 to 1000 nM; in the test on N87, below 200 nM; in the test with H1975 cells it was 200 to 1000 nM.
On to `CN(C)C/C=C/C(=O)N1CCc2c(sc3ncnc(Nc4ccc(C#N)c(Cl)c4)c23)C1` [Example 173, 2-chloro-4-({7-[(2E)-4-(dimethylamino)but-2-enoyl]-5,6,7,8-tetrahydropyrido [4′,3′:4,5]thieno[2,3-d]pyrimidin-4-yl}amino)benzonitrile], for which the IC50 is 1000 to 10000 nM with A431 cells, below 200 nM in the test on N87 and 1000 to 10000 nM in the test on H1975 cells.
For the molecule `CN(C)C/C=C/C(=O)N1CCc2c(sc3ncnc(Nc4cc(Cl)cc(Cl)c4)c23)C1` [Example 174, N-(3,5-dichlorophenyl)-7-[(2E)-4-(dimethylamino)but-2-enoyl]-5,6,7,8-tetrahydropyrido [4′,3′:4,5]thieno[2,3-d]pyrimidin-4-amine], the half-maximal inhibitory concentration (IC50) is 1000 to 10000 nM in the test with A431 cells, below 200 nM in the test on N87 and 1000 to 10000 nM in the test with H1975 cells.
`CN(C)C/C=C/C(=O)N1CCc2c(sc3ncnc(Nc4ccc(F)cc4)c23)C1` [Example 175, 7-[(2E)-4-(dimethylamino)but-2-enoyl]-N-(4-fluorophenyl)-5,6,7,8-tetrahydropyrido [4′,3′:4,5]thieno[2,3-d]pyrimidin-4-amine]: the half-inhibitory concentration (IC50) was 1000 to 10000 nM with A431 cells, below 200 nM in the test on N87 and 1000 to 10000 nM in the test on H1975 cells.
For `CN(C)C/C=C/C(=O)N1CCc2c(sc3ncnc(Nc4ccc(F)c(Br)c4)c23)C1` [Example 176, N-(3-bromo-4-fluorophenyl)-7-[(2E)-4-(dimethylamino)but-2-enoyl]-5,6,7,8-tetrahydropyrldo [4′,3′:4,5]thieno[2,3-d]pyrimidin-4-amine], the half-inhibitory concentration (IC50) in the test with A431 cells is 200 to 1000 nM; with N87 it was below 200 nM; with H1975 cells, 200 to 1000 nM.
Turning to `Cc1cccc(Nc2ncnc3sc4c(c23)CCN(C(=O)/C=C/CN(C)C)C4)c1` [Example 177, 7-[(2E)-4-(dimelhylamino)but-2-enoyl]-N-(3-methylphenyl)-5,6,7,8-tetrahydropyrido [4′,3′:4,5]thieno[2,3-d]pyrimidin-4-amine], the values for the IC50 in the test with A431 cells, with N87 and in the test with H1975 cells were 1000 to 10000 nM, below 200 nM and 1000 to 10000 nM, respectively.
As for `CCc1cccc(Nc2ncnc3sc4c(c23)CCN(C(=O)/C=C/CN(C)C)C4)c1` [Example 178, 7-[(2E)-4-(dimethylamino)but-2-enoyl]-N-(3-ethylphenyl)-5,6,7,8-tetrahydropyrido [4′,3′:4,5]thieno[2,3-d]pyrimidin-4-amine], the half-inhibitory concentration (IC50) is 1000 to 10000 nM in the test with A431 cells, below 200 nM with N87 and 1000 to 10000 nM in the test with H1975 cells.
On to `COc1cccc(Nc2ncnc3sc4c(c23)CCN(C(=O)/C=C/CN(C)C)C4)c1` [Example 179, 7-[(2E)-4-(dimethylamino)but-2-enoyl]-N-(3-methoxyphenyl)-5,6,7,8-tetrahydropyrido [4′,3′:4,5]thieno[2,3-d]pyrimidin-4-amine], for which the 50% inhibitory concentration (IC50) in the test on A431 cells was 1000 to 10000 nM; with N87, below 200 nM; in the test with H1975 cells it was 1000 to 10000 nM.
Take `CN(C)C/C=C/C(=O)N1CCc2c(sc3ncnc(Nc4ccc(Cl)c(F)c4)c23)C1` [Example 180, N-(4-chloro-3-fluorophenyl)-7-[(2E)-4-(dimethylamino)but-2-enoyl]-5,6,7,8-tetrahydropyrido [4′,3′:4,5]thieno[2,3-d]pyrimidin-4-amine]: the IC50 with A431 cells is 200 to 1000 nM; in the test with N87 it was below 200 nM; with H1975 cells, 1000 to 10000 nM.
`CN(C)C/C=C/C(=O)N1CCc2c(sc3ncnc(Nc4cc(F)cc(Cl)c4)c23)C1` [Example 181, N-(3-chloro-5-fluorophenyl)-7-[(2E)-4-(dimethylamino)but-2-enoyl]-5,6,7,8-tetrahydropyrido [4′,3′:4,5]thieno[2,3-d]pyrimidin-4-amine]: the IC50 with A431 cells is 1000 to 10000 nM; with N87, below 200 nM; in the test with H1975 cells it was 1000 to 10000 nM.
Take `Cc1cc(Nc2ncnc3sc4c(c23)CCN(C(=O)/C=C/CN(C)C)C4)ccc1F` [Example 182, 7-[(2E)-4-(dimethylamino)but-2-enoyl]-N-(4-fluoro-3-methylphenyl)-5,6,7,8-tetrahydropyrido [4′,3′:4,5]thieno[2,3-d]pyrimidin-4-amine]: the values for the IC50 in the test with A431 cells, in the test with N87 and in the test with H1975 cells were 200 to 1000 nM, below 200 nM and 1000 to 10000 nM, respectively.
Taken in the same sequence, the figures for `Cc1cc(Nc2ncnc3sc4c(c23)CCN(C(=O)/C=C/CN(C)C)C4)ccc1Cl` [Example 183, N-(4-chloro-3-methylphenyl)-7-[(2E)-4-(dimethylamino)but-2-enoyl]-5,6,7,8-tetrahydropyrido [4′,3′:4,5]thieno[2,3-d]pyrimidin-4-amine] were 200 to 1000 nM, below 200 nM and below 200 nM.
The corresponding values for `CN(C)C/C=C/C(=O)N1CCc2c(sc3ncnc(Nc4ccc(Br)cc4)c23)C1` [Example 184, N-(4-bromophenyl)-7-[(2E)-4-(dimethylamino)but-2-enoyl]-5,6,7,8-tetrahydropyrido [4′,3′:4,5]thieno[2,3-d]pyrimidin-4-amine.] are 200 to 1000 nM, below 200 nM and 1000 to 10000 nM.
